{
  "source": "paper PMC9728921",
  "about": "“Characterization of a KDM5 small molecule inhibitor with antiviral activity against hepatitis B virus” (PLOS ONE, 2022)",
  "key": {"[1]": {"biological_target": "HMT or HDAC enzymes", "assay": "Panel of HMT and HDAC enzymes", "format": "biochemical", "conditions": "no measurable inhibitory activity; read-out: IC50 against any of the HMT or HDAC enzymes tested", "protocol": "Histone methyltransferase assays were performed in 96-well half-area optiplates (PerkinElmer) at room temperature. All concentrations are final unless noted otherwise. Compounds were serially diluted in DMSO and the final DMSO concentration was 1%. […] The plate was sealed, mixed on a Titramax plate shaker at 1200 rpm for 30 sec, and incubated at room temperature for 60 min. […] The plate was sealed, mixed as previously noted, incubated overnight, and read on a TopCount plate reader (PerkinElmer). The HDAC-1 histone deacetylase assay was tested using the FLUOR DE LYS platform ([…]). Inhibition of SIRT-1 histone deacetylase was tested with the AlphaLISA detection system. All assays were conducted at room temperature with a final DMSO concentration of 1%. […] After a 60-minute incubation, the reaction was quenched with 10 μL AlphaLISA H3K4-specific Acceptor beads (1:200) in Epigenetics Buffer, and the reaction mixture was incubated for 60 min. The Donor beads were diluted 1:200 into Epigenetics Buffer in the dark and 10 μL of this mixture was added to each well and incubated for another 60 min in the dark. The assay plates were read on an Enspire plate reader (PerkinElmer) using a standard AlphaLISA program. […] Data was analyzed using GraphPad Prism 6.0 (La Jolla, CA). […] IC50 values were calculated as an average of at least two independent experiments."}, "[2]": {"biological_target": "T1, PRMT1 (Homo sapiens, UniProt Q99873)", "T1 construct": "2-371", "T1 sequence (Q99873 2-371)": "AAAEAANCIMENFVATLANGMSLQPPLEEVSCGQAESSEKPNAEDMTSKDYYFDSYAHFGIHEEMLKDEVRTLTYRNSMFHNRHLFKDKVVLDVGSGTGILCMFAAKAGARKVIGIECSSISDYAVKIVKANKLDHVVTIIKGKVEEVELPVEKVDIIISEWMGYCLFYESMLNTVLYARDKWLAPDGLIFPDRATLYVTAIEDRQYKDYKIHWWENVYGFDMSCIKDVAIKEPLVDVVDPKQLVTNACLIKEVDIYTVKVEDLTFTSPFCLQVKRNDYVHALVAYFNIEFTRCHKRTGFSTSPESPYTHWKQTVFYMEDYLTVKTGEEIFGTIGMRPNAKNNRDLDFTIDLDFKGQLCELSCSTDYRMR", "assay": "Histone methyltransferase enzymatic assay, PRMT1", "format": "biochemical", "conditions": "enzyme conc. 100 nM", "protocol": "(§1) Histone methyltransferase assays were performed in 96-well half-area optiplates (PerkinElmer) at room temperature. All concentrations are final unless noted otherwise. Compounds were serially diluted in DMSO and the final DMSO concentration was 1%. A 24 μL reaction mixture contained compound, enzyme, 200 nM of nucleosome or histone substrate, 400 nM ^3H-SAM (83.1 Ci/mmol), 50 mM Tris-HCl (pH 8.0), 50 mM NaCl, 5 mM MgCl2, 1 mM DTT, and 0.01% Tween-20. The plate was sealed, mixed on a Titramax plate shaker at 1200 rpm for 30 sec, and incubated at room temperature for 60 min. The reaction was quenched by addition of 24 μL mixture containing 5 mg/mL PVT-PEI beads and 300 μM unlabeled SAM in water. The plate was sealed, mixed as previously noted, incubated overnight, and read on a TopCount plate reader (PerkinElmer).\n(§2) Data was analyzed using GraphPad Prism 6.0 (La Jolla, CA). […] IC50 values were calculated as an average of at least two independent experiments."}, "[3]": {"biological_target": "KDM1A (Homo sapiens, UniProt O60341)", "assay": "KDM1A enzymatic assay (AlphaLISA, NAD)", "format": "biochemical", "protocol": "The KDM1 assay was conducted in the presence of NAD but without Fe(II) or ascorbic acid. A 10 μL reaction mixture containing 50 mM Tris-HCl (pH 9.0), 50 mM NaCl, 0.01% Tween-20, 0.25 nM of enzyme, and 1 mM NAD was pre-incubated for 10 min. The reaction was started by addition of 5 μL of H3(1–21)K4 me1, and the reaction mixture was incubated for 60 min. The reaction was quenched with 10 μL AlphaLISA Acceptor beads (1:200) in Epigenetics Buffer and the reaction mixture was incubated for 60 min. The Donor beads were diluted 1:200 into Epigenetics Buffer in the dark, and 10 μL of this mixture was added to each well and incubated for another 60 min in the dark. The assay plates were read on an Enspire plate reader (PerkinElmer) using a standard AlphaLISA program.\nas §2"}, "[4]": {"biological_target": "T2, SETDB1 (Homo sapiens, UniProt Q15047)", "T2 construct": "510-1290", "assay": "Histone methyltransferase enzymatic assay, SETDB1", "format": "biochemical", "conditions": "enzyme conc. 100 nM", "protocol": "as §1, §2"}, "[5]": {"biological_target": "T3, HDAC-1 (Homo sapiens, UniProt Q13547)", "T3 construct": "Full length; purchased BPS", "T3 sequence (Q13547 whole entry)": "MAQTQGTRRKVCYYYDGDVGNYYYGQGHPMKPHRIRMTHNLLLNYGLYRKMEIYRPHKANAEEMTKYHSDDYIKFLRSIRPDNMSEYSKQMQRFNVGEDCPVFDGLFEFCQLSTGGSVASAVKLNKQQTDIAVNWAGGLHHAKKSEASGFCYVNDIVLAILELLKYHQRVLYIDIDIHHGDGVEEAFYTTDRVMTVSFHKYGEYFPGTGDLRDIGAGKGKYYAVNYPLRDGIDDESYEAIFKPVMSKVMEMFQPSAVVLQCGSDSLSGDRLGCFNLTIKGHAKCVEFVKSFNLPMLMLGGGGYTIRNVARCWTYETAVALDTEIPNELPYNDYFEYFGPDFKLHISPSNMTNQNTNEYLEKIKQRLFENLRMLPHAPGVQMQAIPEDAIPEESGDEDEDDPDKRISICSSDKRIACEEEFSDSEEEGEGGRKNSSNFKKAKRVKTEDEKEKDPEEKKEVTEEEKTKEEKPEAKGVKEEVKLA", "assay": "HDAC-1 histone deacetylase assay (FLUOR DE LYS)", "format": "biochemical", "conditions": "enzyme conc. 5 nM"}, "[6]": {"biological_target": "T4, NSD3 (Homo sapiens, UniProt Q9BZ95)", "T4 construct": "1021-1322; purchased RBC (read as Reaction Biology Corporation, named)", "T4 sequence (Q9BZ95 1021-1322)": "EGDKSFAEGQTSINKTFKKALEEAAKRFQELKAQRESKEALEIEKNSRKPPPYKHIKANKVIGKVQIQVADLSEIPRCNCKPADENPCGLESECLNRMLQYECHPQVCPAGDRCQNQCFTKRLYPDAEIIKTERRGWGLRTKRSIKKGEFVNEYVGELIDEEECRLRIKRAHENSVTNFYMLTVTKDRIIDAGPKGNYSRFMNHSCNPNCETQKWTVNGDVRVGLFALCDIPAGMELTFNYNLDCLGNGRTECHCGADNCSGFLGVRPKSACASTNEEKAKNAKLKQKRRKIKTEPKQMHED", "assay": "Histone methyltransferase enzymatic assay, NSD3", "format": "biochemical", "conditions": "enzyme conc. 100 nM", "protocol": "as §1, §2"}, "[7]": {"biological_target": "KDM4C (Homo sapiens, UniProt Q9H3R0)", "sequence (Q9H3R0 whole entry)": "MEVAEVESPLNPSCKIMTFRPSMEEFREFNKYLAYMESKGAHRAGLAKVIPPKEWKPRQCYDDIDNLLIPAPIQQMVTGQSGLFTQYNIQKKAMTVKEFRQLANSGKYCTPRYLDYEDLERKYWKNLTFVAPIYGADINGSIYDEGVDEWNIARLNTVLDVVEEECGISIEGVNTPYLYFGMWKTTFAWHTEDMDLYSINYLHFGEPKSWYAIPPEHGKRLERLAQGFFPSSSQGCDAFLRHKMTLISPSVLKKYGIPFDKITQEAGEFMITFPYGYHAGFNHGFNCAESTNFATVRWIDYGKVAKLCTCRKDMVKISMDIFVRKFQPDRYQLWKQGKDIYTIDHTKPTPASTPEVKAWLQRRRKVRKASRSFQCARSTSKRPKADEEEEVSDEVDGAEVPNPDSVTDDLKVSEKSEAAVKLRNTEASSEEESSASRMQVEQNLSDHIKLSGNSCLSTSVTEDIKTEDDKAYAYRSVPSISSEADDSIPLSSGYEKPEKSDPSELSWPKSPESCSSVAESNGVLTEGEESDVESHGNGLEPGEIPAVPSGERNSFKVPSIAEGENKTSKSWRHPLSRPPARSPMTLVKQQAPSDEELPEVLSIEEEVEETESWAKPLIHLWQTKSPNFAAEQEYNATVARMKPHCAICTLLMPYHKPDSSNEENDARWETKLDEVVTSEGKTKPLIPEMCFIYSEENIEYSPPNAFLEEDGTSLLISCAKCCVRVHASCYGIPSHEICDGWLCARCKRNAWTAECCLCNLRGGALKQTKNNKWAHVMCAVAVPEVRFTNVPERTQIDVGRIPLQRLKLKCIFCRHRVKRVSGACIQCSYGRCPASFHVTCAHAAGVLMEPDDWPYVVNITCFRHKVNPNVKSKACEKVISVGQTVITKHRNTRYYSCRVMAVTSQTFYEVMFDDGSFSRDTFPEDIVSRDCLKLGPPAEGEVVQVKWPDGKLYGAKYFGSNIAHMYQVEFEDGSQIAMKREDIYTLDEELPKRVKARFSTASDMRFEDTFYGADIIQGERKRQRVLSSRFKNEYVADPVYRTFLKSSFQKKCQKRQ", "assay": "biochemical", "protocol": "The following assay protocol was used for all histone demethylases tested except KDM1A, KDM5A, B, and D, which are described below. Compounds were serially diluted into a 384-well Alpha plate as a DMSO solution and mixed with 5 μL reaction buffer (buffer A) containing 50 mM HEPES (pH 7.0), 0.1% BSA, and 0.003% Tween-20. The enzyme of interest was pre-incubated with 15 μM of Fe^2+ for 10 min (except 30 min for KDM2B) in reaction buffer A. 5 μL of the enzyme mixture was added to each of the compound-containing wells and incubated for 10 min. The reaction was started by addition of a 5 μL mixture containing 300 nM peptide substrate, 75 μM L-ascorbic acid, and 30 μM α-ketoglutarate in buffer A. This final 15 μL of reaction mixture was incubated for 20 min for KDM5B and 1 hour for the other KDM enzymes. The reaction was quenched with 10 μL of diluted AlphaLISA Acceptor beads (1:400) in Epigenetics Buffer and incubated for 60 min. The Donor beads were diluted 1:400 into Epigenetics Buffer in the dark and 10 μL of this was added to each well and incubated for another 60 min in the dark. The assay plates were read on an Enspire plate reader (PerkinElmer) using a standard AlphaLISA program.\nas §2"}, "[8]": {"format": "in vivo, human", "description": "Nevertheless, any further clinical evaluation of KMD5 inhibitors in other therapeutic areas should pay close attention to hepatotoxic effects, which might me associated with inhibition of the biologic target even at low levels of engagement.\nFor the clinical studies mentioned above, all patients signed an informed consent form before screening and in accordance with local regulatory and ethics committee requirements."}},
  "note": "pIC50: −log10 of the molar value.",
  "data": [
    {"compound": "CCN(CCN(C)C)C(=O)CNCc1cc(C(=O)O)ccn1", "note": "[GS-080]", "values": [
      {"measurement": "pIC50", "setting": "[1]", "value": "< 4.00"},
      {"measurement": "pIC50", "setting": "[2]", "value": "< 4.00"},
      {"measurement": "Fold Selectivity Compared to KDM5A", "setting": "[3]; IC50 of KDM1A over KDM5A", "value": "> 278,000 fold"},
      {"measurement": "pIC50", "setting": "[3]; enzyme concentration 0.25 nM", "value": "< 4.00"},
      {"measurement": "pIC50", "setting": "[4]", "value": "< 4.00"},
      {"measurement": "pIC50", "setting": "[5]", "value": "< 4.00"},
      {"measurement": "pIC50", "setting": "[6]", "value": "< 4.00"},
      {"measurement": "pIC50", "setting": "[7]", "value": 8.32},
      {"measurement": "Fold Selectivity Compared to KDM5A", "setting": "[7]; IC50 of KDM4C over KDM5A", "value": 13, "unit": "fold"}
    ]},
    {"compound": "CCOC(=O)c1ccnc(CNCC(=O)N(CC)CCN(C)C)c1", "note": "[GS-5801]", "values": [
      {"measurement": "HBV antigen level decreases", "setting": "[8]; HBV patients, to be published elsewhere", "value": "absence of any HBV antigen level decreases"},
      {"measurement": "liver toxicity", "setting": "[8]; human, in vivo", "value": "dose limiting, reversible liver toxicity"}
    ]}
  ]
}
